One assay deals with MV-4-11 cells. The experiment in a line: Antiproliferative activity, CCK-8 assay. Particulars: Homo sapiens, MV4-11; 144 hours incubation, CCK-8, absorbance at 450 nm. The assay is classed as cell-based. On the procedure:
(§1) The cell models used in this example were human hematologic tumor cells, including NCI-H929, RPMI-8226, MV-4-11, U937 and WSU-DLCL-2. Some of the compounds of the present invention were selected to determine their inhibitory activity against the proliferation of NCI-H929, RPMI-8226, MV-4-11, U937, and WSU-DLCL-2 cells.
(§2) • ① The selected compounds were dissolved in DMSO to prepare 10 mM stock solutions. Compounds used within three months should be stored at room temperature in a desiccator; others could be stored at -20°C for long-term storage. • ② The above stock solutions and the positive reference compound pomalidomide were diluted with DMSO. Their initial concentrations were 10 µM. In the experiments of NCI-H929 and RPMI-8226 cells, 3-fold serial dilution with 11 concentration points was performed, with the lowest concentration of 0.00047 µM. The resulting solutions were shaken on a shaker for 5 minutes.
(§3) • ① The NCI-H929, RPMI-8226, MV-4-11, U937, and WSU-DLCL-2 cells in logarithmic growth phase were inoculated in a 96-well plate, 20,000 to 30,000 cells per well, and the plate was pre-cultured for 24 hours in an incubator (at 37°C and 5% CO2). • ② The culture medium in the plate was replaced, and the compounds and the positive control with corresponding concentrations were added to the plated at a volume of 50 µl. • ③ The plate was incubated for 144 hours in an incubator, then 15 µl of CCK-8 solution was added to each well, and incubated in the incubator for another 1-4 hours. • ④ The absorbance at 450 nm was measured using a microplate reader.
(§4) • ① Calculating % Inhibition: [formula] • ② Calculating IC50 value of compound and plotting dose-response curve: The IC50 value was calculated by fitting the % Inhibition and the logarithm of compound concentration to a nonlinear regression (dose response-variable slope) by using GraphPad 6.0. • Y = Bottom + (Top - Bottom) / (1 + 10^((LogIC50 - X) * HillSlope)) • X: log of inhibitor concentration; Y: % Inhibition.
(§5) After calculating % Inhibition, a dose-response curve was plotted with the logarithm of the test compound concentration as the x-axis and the average cell viability as the y-axis, and the IC50 value was obtained by fitting.

For a further assay, the system named is NCI-H929 cells. Kind of assay: Antiproliferative activity, CCK-8 assay. Type of assay: cell-based. The note with it: Homo sapiens, 144 hours incubation, CCK-8, absorbance at 450 nm, read-out: IC50 (µM) H-929. On the procedure: as §1, §2, §3, §4, §5
For the next assay, the system named is U937 cells. The experiment in a line: Antiproliferative activity, CCK-8 assay. Type of assay: cell-based. Particulars: Homo sapiens, U-937; 144 hours incubation, CCK-8, absorbance at 450 nm. The procedure:
as §1, §2, §3, §4, §5

In a further assay the test system is WSU-DLCL-2 cells. Kind of assay: Antiproliferative activity, CCK-8 assay. The assay is classed as cell-based. The note with it: Homo sapiens, WSUDLCL2; 144 hours incubation, CCK-8, absorbance at 450 nm. On the procedure:
as §1, §2, §3, §4, §5

The test system of assay [1] is human multiple myeloma RPMI-8226 xenograft tumors. Kind of assay: In vivo activity against RPMI-8226 transplanted tumor. Also noted: species or system NOD/SCID mice. Particulars: 10 mg/kg, QD; for Tumor inhibition rate TGI (%) / Volume (mm^3), 0 days / Volume (mm^3), 12 days: oral gavage; for Tumor inhibition rate TGI (%): 12 consecutive days; for Volume (mm^3), 0 days: tumor volume at 0 days (baseline); for Volume (mm^3), 12 days: tumor volume at 12 days. The procedure:
In this example, human multiple myeloma RPMI-8226 cell line was used as the cell model. The inhibitory effects of compounds on the growth of NOD/SCID mouse transplanted tumors of RPMI-8226 tumor cells were determined. The evaluation methods and results are described below.
Human multiple myeloma RPMI-8226 cells were routinely cultured in RPMI1640 containing 10% fetal bovine serum at 37°C in a 5% CO2 incubator. After three passages in vitro, when the cells reached over 80% confluence and the required confluence rate, the cells were digested and harvested. After washing with PBS, the cells were counted and the cell concentration was adjusted to approximately 5 × 10^7 cells/mL. The cells were then placed in 4 mL centrifuge tubes on ice for later use.
Female NOD/SCID mice aged 4-5 weeks were selected and subcutaneously inoculated with RPMI-8226 cells ectopically. The mice were held in a lateral position, the forelimb axilla was disinfected with 75% alcohol, and 100 µL of the cell suspension was injected subcutaneously into the axilla using a 1 mL syringe ([…]/100 µL).
Once the tumors grew to 90-150 mm^3, the animals were randomly grouped, 8 mice per group, and administered according to different administration methods as follows: • Model control group: administered with the same volume of Vehicle (DMSO: 0.5% sodium carboxymethyl cellulose: distilled water = 1:1:8) daily by gavage; • Test groups: administered with compound I-4 and compound I-8 solutions at 10 mg/kg (mouse body weight) daily by gavage, respectively; • Positive control group: administered with pomalidomide solution at 10 mg/kg (mouse body weight) daily by gavage.
The route of administration was oral gavage, and the administration frequency was once daily, for 12 consecutive days. The first day of administration was defined as Day 1 of the experiment. Tumor volume changes in mice were measured and recorded every two days. Tumor volume was measured using a vernier caliper, in which the major axis (a) and minor axis (b) of the tumor were measured, and the tumor volume was calculated as: tumor volume V (mm^3) = a x b^2/2. After the experiment, the mice were dissected and the tumor weight was measured. The data were entered and statistically analyzed using GraphPad Prism 6 software. The data are expressed as mean ± SEM (Standard Error of Mean), and one-way ANOVA was used. P ≤ 0.05 was considered statistically significant.

In turn, `CN1Cc2c(N)cccc2C(=O)N1C1CCC(=O)NC1=O` (centres unmarked) [I-4, 3-(5-amino-3-methyl-1-oxo-3,4-dihydrophthalazin-2(1H)-yl)piperidin-2,6-dione] registered an IC50 with MV-4-11 cells of 0.183 µM. The IC50 with NCI-H929 cells was 0.116 µM. The IC50 in the assay with U937 cells turned out to be 0.31 µM. This compound also showed an IC50 in the assay on WSU-DLCL-2 cells of 1.21 µM. In assay [1], the “growth of RPMI-8226 transplanted tumors (in words)” value is reported as “significantly inhibit the growth”; the “Tumor inhibition rate TGI (%)” value was 73.38%; the “Volume (mm^3), 0 days” value is reported as 189.0 mm^3; the “Volume (mm^3), 12 days” value turned out to be 541.1 mm^3.
Regarding `CN1Cc2c(NCc3ccc(CN4CCN(c5ccc(C#N)c(F)c5)CC4)cc3)cccc2C(=O)N1C1CCC(=O)NC1=O` (centres unmarked) [I-8], the IC50 came out at 0.0058 µM in the assay with MV-4-11 cells, 0.0039 µM with NCI-H929 cells, 0.0088 µM with U937 cells and 0.017 µM in the assay on WSU-DLCL-2 cells. In assay [1], the “growth of RPMI-8226 transplanted tumors (in words)” value was “significantly inhibit the growth”. Also, the “Tumor inhibition rate TGI (%)” value in assay [1] is 80.13%. In addition, the “Volume (mm^3), 0 days” value in assay [1] was 257.5 mm^3. For the same compound, the “Volume (mm^3), 12 days” value in assay [1] amounted to 520.3 mm^3.
For `Nc1cccc2c1C(=O)N(C1CCC(=O)NC1=O)C2=O` (centres unmarked) [Pomalidomide, reference compound], the IC50 in the assay with MV-4-11 cells was over 10 µM; in the assay with NCI-H929 cells it was 3.91 µM; in the assay on U937 cells, 2.53 µM; in the assay with WSU-DLCL-2 cells it was over 10 µM. Besides, the “Tumor inhibition rate TGI (%)” value in assay [1] is given as 47.80%. The “Volume (mm^3), 0 days” value in assay [1] was 180.0 mm^3. Also, the “Volume (mm^3), 12 days” value in assay [1] amounted to 870.4 mm^3.
